The record followed here is patent US12201679B2, “Epitope-targeted peptide immunostimulants” (priority 2019, dated 2025).

Series [1] deals with full-length recombinant MrkA protein (Klebsiella pneumoniae, UniProt P12267). The series is classed as binding. The note with it: [MrkA] 25 nM. The text has this: HPraGly is present before X1 in each peptide and Az4 follows X5 in each peptide.
A short description of series [2]: Isocratic point, elution from C18 prep-scale column. The series is classed as physicochemical. The note with it: elution from C18 column. On the procedure:
PCC compounds were purified on a Waters Autopurification system, which isolated compounds based on MS peaks corresponding to protonated [M+1H]^+ and [M+2H]^2+, and/or sodium adducts [M+Na]^+ and [M+2Na]^2+. The isocratic points of PCCs were determined based on the elution of the compound from a C18 prep-scale column. Synthetic epitopes were either purified on the Waters Autopurification System, or by semi-preparative HPLC and then using matrix-assisted laser desorption/ionization mass spectroscopy to identify fractions with the desired m/z ratio. The resulting peptides were lyophilized, the yield determined by mass difference or UV-visible absorbance, and resuspended at a concentration of up to 10 mM peptide in DMSO. Peptides were stored at −80° C. before thawing for each use.

Series [3] has as its system K. pneumoniae (strains BAA 1705 & 2146). The experiment in a line: Whole-cell ELISA, biotinylated PCC, multidrug-resistant K. pneumoniae. The conditions noted are these: biotinylated PCC at 5 μM, FIG. 5C. The series is classed as cell-based, Klebsiella pneumoniae. On the procedure:
Detection of the binding of biotinylated PCCs to bacterial surface was performed as follows. 10^8 bacteria from a culture grown overnight were used for each test. […] After washing thrice with PBS to remove unbound PCCs, bacteria were incubated with Streptavidin-HRP (1:1000) for 1 h at 37° C. Bacteria were washed thoroughly and the TMB reagent was added until visible coloration was observed. The reaction was quenched using 2N H2SO4 and absorbance was measured at 450 nm.
In general terms: An ELISA detects its analyte on a solid surface through an enzyme-linked reagent.

Series [4] relates to K. pneumoniae cells (strain BAA 2146). Kind of series: Flow cytometry, recruitment of fluorescent anti-DNP antibodies. The series is classed as cell-based, Klebsiella pneumoniae. The note with it: cy(LLFFF)-DNP 1 or 5 μM; cy(HNGPT) 50 μM; plus fluorescent anti-DNP. (In general: In flow cytometry, cells or beads pass a laser one at a time.)
Method: To test this, cells were incubated with DNP-conjugated EPIs and then fluorescently labeled anti-DNP antibody (Alexafluor488), and subsequently quantified the fluorescence of cells by using flow cytometry.
Cytometry measurements were gated for single cells, and each distribution comprises >18,000 cells.
Cytometry measurements were used to quantify AR-PCC-driven opsonization and opsonophagocytic killing of K. pneumoniae cells. For these measurements, K. pneumoniae cells were cultured in G-CAA medium overnight, washed, incubated with DNP-tagged AR-PCC at a desired concentration, washed, incubated with anti-DNP antibody conjugated with Alexafluor488, washed, then resuspended in PBS media. The samples were stored at 4° C. for 2 d before cytometry measurements were performed. The cytometer was calibrated by using Rainbow fluorescent beads (3.5 μm diameter) 3.5 m from BD (559123), which aided identification of single K. pneumoniae cells in subsequent measurements. Samples were excited with 488 nm light and the fluorescence emission at 530 nm was measured. Sample with no Alexaflour488 stain was used as fluorescent minus one (FMO) control for gating of DNP+ population. FACS data was analyzed on FlowJo v10 software, and the resulting histograms each include fluorescence data from >18,000 cells for strain BAA 2146 (FIG. 4B) and >4,000 cells for strain BAA 1705 (data not shown).
Series [5] deals with K. pneumoniae cells (strain BAA 1705). The experiment in a line: Gentamicin protection assay: phagocytosis and opsonophagocytic killing (OPK) by macrophages. The series is classed as cell-based, Klebsiella pneumoniae. The conditions noted are these: for phagocytosis at 1 h, AR-PCC only (no anti-DNP): control samples; for colony counts at 1 h, EPI plus anti-DNP antibody: 5 μM AR-PCC, murine BMDMs. As to the method:
It also tested whether DNP-conjugated EPIs could promote the opsonophagocytic killing (OPK) of K. pneumoniae by macrophages. This was tested by using an OPK assay. Briefly, K. pneumoniae cells were treated with EPI and then anti-DNP antibody before being exposed to macrophages for either 6 or 24 hours. During this incubation period, macrophages that recognize K. pneumoniae cells will phagocytose them, and phagocytosed bacteria will remain viable for up to 6 hours, but within 24 hours are rendered inviable by OPK. Thus, macrophages were isolated after 6 and 24 hours of incubation with K. pneumoniae, lysed them, and plated and grew the lysate, which yielded bacterial colonies that reflect the phagocytosis (at 6 hrs) or OPK (at 24 hrs) of bacteria.
Given that cy(LLFFF)-DNP (SEQ ID NO:5) recruits antibodies to K. pneumoniae surfaces, it was expected that K. pneumoniae opsonized in this manner would be more susceptible to phagocytosis by macrophages. AR-PCC-driven phagocytosis and OPK were quantified by a gentamicin protection assay, as depicted in FIG. 7A. For this assay, K. pneumoniae cells (strain BAA 1705) were treated with cy(LLFFF)-DNP (SEQ ID NO:5), opsonized by anti-DNP antibodies, and then incubated with murine bone-marrow-derived macrophages (BMDMs). BMDMs were subsequently exposed to a solution containing gentamicin, to which K. pneumoniae strain BAA 1705 is susceptible, to kill any extracellular bacteria. Phagocytosed bacteria remain viable inside BMDMs for at least 1 h, yet are rendered inviable after 24 h by OPK (FIG. 13). Macrophages harvested at 1 h and 24 h were lysed and plated to generate bacterial colonies, which were enumerated to quantify phagocytosis and OPK.
Klebsiella pneumoniae BAA1705 was treated with DNP-PCCs followed by incubation with anti-DNP antibody, as described above in the “Cell-Based ELISAs” section. These opsonized bacteria were then used to infect BMDMs at a multiplicity of infection of 50 for 0.5 h at 37° C. Bacteria were then washed by using RPMI 1640 Media and BMDMs were left in cell culture medium containing gentamicin (100 μg/ml). After 1 h and 24 h BMDMs were washed to remove gentamicin and intracellular bacteria were harvested by lysing BMDMs in RPMI media containing 0.2% Triton X 100. Bacterial CFUs were enumerated by plating onto LB agar. Bacterial counts at 1 h indicated the degree of opsonization while those at 24 h served as a measure of microbicidal activity of macrophages. For these measurements, anti-MrkA antibody and K. pneumoniae antiserum were used at dilutions of 5 μg/mL each.

Several values for one entry are separate records, joined by “and”; a condition that tells them apart may be missing. Identical values can stand only once. Entries after “also recorded” stand apart in the source; their conditions may differ. Like-named read-outs stand apart in the source and are kept apart here. Bridge positions count the residues as written; N and C are the ends. Square brackets hold non-standard residues; d marks the D form. Triazole bridges read from a SMILES are 1,4-linked. Ends that are not written are not given here. Peptide text beside a SMILES is read from it. * marks the point of attachment. Biotin = O=C1N[C@H]2[C@H](CS[C@H]2CCCCC(=O)*)N1; PEG10 = NCCOCCOCCOCCOCCOCCOCCOCCOCCOCCOCCC(=O)O; Lys(N3) = [N-]=[N+]=NCCCC[C@H](N)C(=O)O; Pra = C#CC[C@H](N)C(=O)O

full-length recombinant MrkA protein, sequence (P12267 23-202): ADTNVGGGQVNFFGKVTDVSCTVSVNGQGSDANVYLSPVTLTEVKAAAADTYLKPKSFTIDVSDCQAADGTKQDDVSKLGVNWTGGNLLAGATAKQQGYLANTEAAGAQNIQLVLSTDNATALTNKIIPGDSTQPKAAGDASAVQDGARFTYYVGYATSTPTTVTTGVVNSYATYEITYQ

For `CC(C)C[C@@H]1NC(=O)[C@@H](NC(=O)CCOCCOCCOCCOCCOCCOCCOCCOCCOCCOCCNC(=O)[C@H](CCCNC(=N)N)NC(=O)[C@H](CCCNC(=N)N)NC(=O)[C@H](CCCNC(=N)N)NC(=O)[C@H](CCCNC(=N)N)NC(=O)[C@H](CCCNC(=N)N)NC(=O)[C@H](CCCNC(=N)N)NC(=O)CCOCCOCCOCCOCCOCCOCCOCCOCCOCCOCCNC(=O)CCCC[C@@H]2SC[C@@H]3NC(=O)N[C@@H]32)Cc2cn(nn2)CCCC[C@@H](C(N)=O)NC(=O)[C@H](Cc2ccccc2)NC(=O)[C@H](Cc2ccccc2)NC(=O)[C@H](Cc2ccccc2)NC(=O)[C@H](CC(C)C)NC1=O` [compound 17] ({Biotin-PEG10}-RRRRRR[PEG10][Pra]LLFFF[Lys(N3)]-NH2; triazole 8-14), in series [1] (ELISA 5), the “Relative affinity (ratio of ELISA signal versus cy(LLFFF))” value turned out to be 1.22. Besides, the “Isocratic point (%)” value in series [2] came out at 39.82%.
Taken in the same sequence, the figures for `CC(C)C[C@@H]1NC(=O)[C@@H](NC(=O)CCOCCOCCOCCOCCOCCOCCOCCOCCOCCOCCNC(=O)[C@H](CCCNC(=N)N)NC(=O)[C@H](CCCNC(=N)N)NC(=O)[C@H](CCCNC(=N)N)NC(=O)[C@H](CCCNC(=N)N)NC(=O)[C@H](CCCNC(=N)N)NC(=O)[C@H](CCCNC(=N)N)NC(=O)[C@H](CCCNC(=N)N)NC(=O)[C@H](CCCNC(=N)N)NC(=O)[C@H](CCCNC(=N)N)NC(=O)CCOCCOCCOCCOCCOCCOCCOCCOCCOCCOCCNC(=O)CCCC[C@@H]2SC[C@@H]3NC(=O)N[C@@H]32)Cc2cn(nn2)CCCC[C@@H](C(N)=O)NC(=O)[C@H](Cc2ccccc2)NC(=O)[C@H](Cc2ccccc2)NC(=O)[C@H](Cc2ccccc2)NC(=O)[C@H](CC(C)C)NC1=O` [compound 18] were 0.58 and 37.03%.
For the compound `CC(C)C[C@@H]1NC(=O)[C@H](Cc2c[nH]cn2)NC(=O)[C@@H](NC(=O)CCOCCOCCOCCOCCOCCOCCOCCOCCOCCOCCNC(=O)CCCC[C@@H]2SC[C@@H]3NC(=O)N[C@@H]32)Cc2cn(nn2)CCCC[C@@H](C(N)=O)NC(=O)[C@H](Cc2ccccc2)NC(=O)[C@H](Cc2ccccc2)NC(=O)[C@H](Cc2ccccc2)NC1=O` [compound 19] ({Biotin-PEG10}-[Pra]HLFFF[Lys(N3)]-NH2; triazole 1-7), the “Relative affinity (ratio of ELISA signal versus cy(LLFFF))” value in series [1] (ELISA 6) came out at 0.81. Also, the “Isocratic point (%)” value in series [2] was 47.52%.
With `CC(C)C[C@@H]1NC(=O)[C@H](CC(=O)O)NC(=O)[C@@H](NC(=O)CCOCCOCCOCCOCCOCCOCCOCCOCCOCCOCCNC(=O)CCCC[C@@H]2SC[C@@H]3NC(=O)N[C@@H]32)Cc2cn(nn2)CCCC[C@@H](C(N)=O)NC(=O)[C@H](Cc2ccccc2)NC(=O)[C@H](Cc2ccccc2)NC(=O)[C@H](Cc2ccccc2)NC1=O` [compound 20] ({Biotin-PEG10}-[Pra]DLFFF[Lys(N3)]-NH2; triazole 1-7), in series [1] (ELISA 6), the “Relative affinity (ratio of ELISA signal versus cy(LLFFF))” value was 0.21. In series [2], the “Isocratic point (%)” value amounted to 66.33%.
Taken in the same sequence, the figures for `CC(C)C[C@@H]1NC(=O)[C@@H](NC(=O)CCOCCOCCOCCOCCOCCOCCOCCOCCOCCOCCNC(=O)CCCC[C@@H]2SC[C@@H]3NC(=O)N[C@@H]32)Cc2cn(nn2)CCCC[C@@H](C(N)=O)NC(=O)[C@H](Cc2ccccc2)NC(=O)[C@H](Cc2ccccc2)NC(=O)[C@H](CC(C)C)NC1=O` [compound 21] ({Biotin-PEG10}-[Pra]LLFF[Lys(N3)]-NH2; triazole 1-6) were 0.14 and 64.99%.
Taken in the same sequence, the figures for `CC(C)C[C@@H]1NC(=O)[C@@H](NC(=O)CCOCCOCCOCCOCCOCCOCCOCCOCCOCCOCCNC(=O)CCCC[C@@H]2SC[C@@H]3NC(=O)N[C@@H]32)Cc2cn(nn2)CCCC[C@@H](C(N)=O)NC(=O)[C@H](Cc2ccccc2)NC(=O)[C@H](CC(C)C)NC1=O` [compound 22] ({Biotin-PEG10}-[Pra]LLF[Lys(N3)]-NH2; triazole 1-5) were 0.09 and 56.45%.
Turning to `NC(=O)[C@@H]1CCCCn2cc(nn2)C[C@H](NC(=O)CCOCCOCCOCCOCCOCCOCCOCCOCCOCCOCCNC(=O)CCCC[C@@H]2SC[C@@H]3NC(=O)N[C@@H]32)C(=O)N[C@@H](Cc2ccccc2)C(=O)N[C@@H](Cc2ccccc2)C(=O)N[C@@H](Cc2ccccc2)C(=O)N1` [compound 23] ({Biotin-PEG10}-[Pra]FFF[Lys(N3)]-NH2; triazole 1-5), in series [1] (ELISA 6), the “Relative affinity (ratio of ELISA signal versus cy(LLFFF))” value is 0.14. Further, the “Isocratic point (%)” value in series [2] stood at 60.27%.
For the compound “cy(HNGPT) (not fully specified (bridges); printed as cy(HNGPT); also: cyclic, closure not given here) [reference compound]”, the “whole-cell ELISA signal, K. pneumoniae BAA 1705 and BAA 2146” value in series [3] is given as “comparably lower signal; also recorded: no or minimal binding above baseline”. The “fluorescence of cells” value in series [4] is reported as “Slightly greater fluorescence”. Also, in series [5] (6 hrs), the “CFU, DNP-conjugated EPI plus anti-DNP, macrophages harvested at 6 hrs” value is listed as “almost identical CFU count” and the “cell counts, DNP-conjugated EPI only (no antibody), macrophages harvested at 6 hrs” value is on record as ~35,000.
In the case of “cy(LLFFA)-DNP (not fully specified (bridges); printed as cy(LLFFA)-DNP; also: DNP label)”, the “phagocytosis at 1 h, DNP-tagged AR-PCC plus anti-DNP (words)” value in series [5] (1 h, FIG. 7B) is “None of these treatments elicited phagocytosis above basal levels”. The “phagocytosis at 1 h, AR-PCC only (no anti-DNP)” value (from here on “phagocytosis … (no anti-DNP)”) in series [5] (1 h) is reported as “None of these treatments elicited phagocytosis above basal levels”.
For the compound “cy(LLFFF)+R6-DNP (LLFFFRRRRRR; not fully specified (C-terminus); printed as cy(LLFFF)+R6-DNP; also: cyclic over residues 1-5, ring closure not given here)”, in series [5] (1 h), the “colony counts at 1 h, EPI plus anti-DNP antibody” value is on record as 85,000 CFU and the “phagocytosis … (no anti-DNP)” value was “None of these treatments elicited phagocytosis above basal levels”.
Turning to “cy(LLFFF)-DNP (cyclo(LLFFF); also: DNP label)”, in series [4], the “fluorescence of cells” value is recorded as “much higher fluorescence”. In addition, in series [5] (1 h), the “colony counts at 1 h, EPI plus anti-DNP antibody” value is 89,000 CFU and 85,000 CFU; the “phagocytosis … (no anti-DNP)” value is reported as “None of these treatments elicited phagocytosis above basal levels”. Also, in series [5] (plus anti-DNP, 1 h), the “level of phagocytosis lower than K. pneumoniae antiserum and anti-MrkA treatment” value is on record as “about 15%”.
